Reference: US20040110771A1, “7-(r)-aminotriazolopyrimidines, the production thereof and use of the same for combatting phytopathogenic fungi” (priority 2000, published 2004)

Experiments:
Type in all cases: in vivo
[1] = system: Blumeria graminis forma specialis tritici; test: Activity against mildew of wheat caused by Blumeria graminis forma specialis tritici; details: wheat seedlings "Kanzler", dusted with spores 24 h after spraying, 7 days
Description: (§1) The active compounds were prepared separately or jointly as a 10% strength emulsion in a mixture of 70% by weight of cyclohexanone, 20% by weight of Nekanil® LN (Lutensol® AP6, wetting agent having emulsifying and dispersing action based on ethoxylated alkylphenols) and 10% by weight of Wettol® EM (nonionic emulsifier based on ethoxylated castor oil) and diluted with water to the desired concentration.
Leaves of potted wheat seedlings of the cultivar “Kanzler” were sprayed to runoff point with an aqueous preparation of active compound which had been prepared from a stock solution made of 10% of active compound, 85% of cyclohexanone and 5% of emulsifier and were dusted 24 hours after the spray coating had dried on with spores of mildew of wheat (Blumeria graminis forma specialis tritici). The test plants were then placed in a greenhouse at 20-24° C. and 60-90% relative atmospheric humidity. After 7 days, the extent of the mildew development was determined visually in % infection of the entire leaf area.

[2] = system: Pyrenophora teres; test: Activity against net blotch of barley caused by Pyrenophora teres; details: barley seedlings "Igri", inoculated 24 h after spraying, 6 days
Description: as §1
Leaves of potted barley seedlings of the cultivar “Igri” were sprayed to runoff point with an aqueous preparation of active compound which had been prepared from a stock solution made of 10% of active compound, 85% of cyclohexanone and 5% of emulsifier and were inoculated 24 hours after the spray coating had dried on with an aqueous spore suspension of Pyrenophora teres, the net blotch pathogen. The test plants were then placed in a greenhouse at 20-24° C. and 95-100% relative atmospheric humidity. After 6 days, the extent of the development of the disease was determined visually in % infection of the entire leaf area.

[3] = system: Puccinia recondita; test: Curative activity against brown rust of wheat caused by Puccinia recondita; details: curative spray 24 h after inoculation, wheat seedlings "Kanzler", 7 days
Description: as §1
Leaves of potted wheat seedlings of the cultivar “Kanzler” were dusted with spores of brown rust (Puccinia recondita). The pots were then placed in a chamber with high atmospheric humidity (90 to 95%) at 20-22° C. for 24 hours. During this period, the spores germinated and the germinal tubes penetrated into the leaf tissue. The following day, the infected plants were sprayed to runoff point with an aqueous preparation of active compound which had been prepared from a stock solution made of 10% of active compound, 85% of cyclohexanone and 5% of emulsifier. After the spray coating had dried on, the test plants were cultivated in a greenhouse at 20-22° C. and 65-70% relative atmospheric humidity for 7 days. The extent of the rust fungus development on the leaves was then determined.

SMILES	% infection of the leaves after application of an aqueous preparation comprising . . . ppm of active compound ([1]; 16 ppm) [%]	% infection of the leaves after application of an aqueous preparation comprising . . . ppm of active compound ([1]; 63 ppm) [%]	% infection of the leaves after application of an aqueous preparation comprising . . . ppm of active compound ([1]; 250 ppm) [%]	% infection of the leaves after application of an aqueous preparation comprising . . . ppm of active compound ([2]; 16 ppm) [%]	% infection of the leaves after application of an aqueous preparation comprising . . . ppm of active compound ([2]; 63 ppm) [%]	% infection of the leaves after application of an aqueous preparation comprising . . . ppm of active compound ([2]; 250 ppm) [%]	% infection of the leaves after application of an aqueous preparation comprising . . . ppm of active compound ([3]; 16 ppm) [%]	% infection of the leaves after application of an aqueous preparation comprising . . . ppm of active compound ([3]; 63 ppm) [%]	% infection of the leaves after application of an aqueous preparation comprising . . . ppm of active compound ([3]; 250 ppm) [%]
Cc1cccc(F)c1-c1c(Cl)nc2ncnn2c1NC(C)C(C)C (single isomer, unassigned) [I.-11a]	7	7	5	5	0	0	80	5	5
Cc1cccc(F)c1-c1c(Cl)nc2ncnn2c1N[C@H](C)C(C)C (single isomer, unassigned) [I.-11b]		30	30		15	0		20	5
CCC(C)Nc1c(-c2c(C)cccc2F)c(Cl)nc2ncnn12 (stereo not shown) [I.-10]		60	15		3	3	60	40	15
CC[C@@H](C)Nc1c(-c2c(F)cc(F)cc2F)c(Cl)nc2ncnn12 [I.-13]	60	40		20			3	0	
CC[C@@H](C)Nc1c(-c2ccc(F)cc2C)c(Cl)nc2ncnn12 [I.-22]	5	3	3	7	0		30	5	3
Cc1cc(F)ccc1-c1c(Cl)nc2ncnn2c1NC(C)C(C)C (stereo not shown) [I.-23]	15	5	3	0			3	0	0
CC[C@H](C)Nc1c(-c2c(C)cccc2F)c(Cl)nc2ncnn12 [comparison (S)-amine of I.-10]		100	100		100	40	100	100	100
Cc1cccc(F)c1-c1c(Cl)nc2ncnn2c1NC(C)C(C)C [comparison (S)-amine of I.-11a]	80	60	60	100	100	100	100	60	30
Cc1cccc(F)c1-c1c(Cl)nc2ncnn2c1NC(C)C(C)C [comparison (S)-amine of I.-11b]		60	60		100	100		100	100
CC[C@H](C)Nc1c(-c2c(F)cc(F)cc2F)c(Cl)nc2ncnn12 [comparison (S)-amine of I.-13]	100	60		60			60	3	
CCC(C)Nc1c(-c2ccc(F)cc2C)c(Cl)nc2ncnn12 [comparison (S)-amine of I.-22]	80	70	70	80	7		100	100	100
COC[C@H](C)Nc1c(-c2c(F)cc(F)cc2F)c(Cl)nc2ncnn12 [comparison (S)-amine of I.-32]				90	80	30		100	80
